Data as given in patent US20260223844A1, “METHODS AND COMPOSITIONS FOR ALTERING METABOLITES IN HOP PLANTS” (Impello Biosciences, Inc., priority 2023, published 2026).

Columns and labels:
Assay type in all cases: in vivo, Humulus lupulus
CTZ hop plants [1] = assay: Total oil analysis of treated hop plants, Example 4
Procedure: (§1) Hop plants were treated with illustrative elicitor compositions of the disclosure to determine the effect of treatment on hop bitter acid and terpene content. The hop cultivar was CTZ, also known as Columbus, Tomahawk, or Zeus, three trade names owned by various private corporations for the same variety of hop. The treatments were as follows: 1 mM, 5 mM, and 10 mM MDJ Foliar Spray. Harvested hops were analyzed for total oil, beta acid, alpha acid, and terpene content. Total oil and terpene analysis was performed according to a modified version of Analytica EBC Method 7.12, employing Capillary Gas Chromatography Flame Ionization Detection. Plants were measured in triplicate from each treatment group; results represent the average of three samples. Alpha/beta/iso-alpha acid analysis was performed using HPLC, employing a modified version of Analytica EBC Method 7.8.

CTZ hop plants [2] = assay: Terpene analysis of treated hop plants, Example 4 (modified EBC 7.12, GC-FID); settings: % of overall terpene content; for Terpene content: Geranyl acetate 1*: (2E) isomer; for Terpene content: Geranyl acetate 2**: (2Z) isomer; for Terpene content: Nerolidol 1*: (E) isomer; for Terpene content: Nerolidol 2**: (Z) isomer
Procedure: as §1

Cashmere Hops [3] = assay: Terpene analysis of treated hop plants, Example 2 (EBC 7.12, GC-FID); settings: 5 mM MDJ foliar spray vs control
Procedure: (§2) Hop plants were treated with illustrative elicitor compositions of the disclosure to determine the effect of treatment on hop terpene content. The hop cultivar was Cashmere Hops. The treatments were as follows: Control (“CK2”)—Untreated control; TR1—1 mM MDJ Foliar Spray: TR2—5 mM MDJ Foliar Spray.
(§3) Harvested hops were analyzed for total oil, beta acid, alpha acid, terpene, and thiol content. Total oil analysis was performed according to Analytica EBC Method 7.10, employing steam distillation. Alpha/beta/iso-alpha acid analysis was performed using HPLC, employing a modified version of Analytica EBC Method 7.8. Terpene analysis was performed according to Analytica EBC Method 7.12, employing Capillary Gas Chromatography Flame Ionization Detection. Thiol composition was analyzed via gas chromatography with sulfur chemiluminescence detector (GC-SCD).

Cashmere Hops [4] = assay: Bitter acids analysis of treated hop plants, Example 2 (HPLC, modified EBC 7.8); settings: MDJ foliar spray 1 mM or 5 mM vs untreated control
Procedure: as §2, §3

CTZ hop plants [5] = assay: Alpha/beta acid analysis of treated hop plants, Example 4 (HPLC, modified EBC 7.8)
Procedure: as §1

CCCCCC1C(=O)CCC1CC(=O)OC (stereo not drawn) [MDJ, methyl dihydrojasmonate]
Total oil (CTZ hop plants [1]; 1 mM MDJ foliar spray): 1.43 mL/100 g | Total oil (CTZ hop plants [1]; 5 mM MDJ foliar spray): 2.22 mL/100 g | Total oil (CTZ hop plants [1]; 10 mM MDJ foliar spray): 1.72 mL/100 g | Terpene content: 2-Undecanone (CTZ hop plants [2]; 1 mM MDJ foliar spray): 0.00% | Terpene content: Alpha-pinene (CTZ hop plants [2]; 1 mM MDJ foliar spray): 0.37% | Terpene content: Beta-ionone (CTZ hop plants [2]; 1 mM MDJ foliar spray): 0.08% | Terpene content: Beta-pinene (CTZ hop plants [2]; 1 mM MDJ foliar spray): 0.36% | Terpene content: Caryophyllene (CTZ hop plants [2]; 1 mM MDJ foliar spray): 16.6% | Terpene content: Caryophyllene oxide (CTZ hop plants [2]; 1 mM MDJ foliar spray): 0.12% | Terpene content: Citral (CTZ hop plants [2]; 1 mM MDJ foliar spray): 0.32% | Terpene content: Citronellene (CTZ hop plants [2]; 1 mM MDJ foliar spray): 0.42% | Terpene content: Citronellol (CTZ hop plants [2]; 1 mM MDJ foliar spray): 0.00% | Terpene content: Farnesene (CTZ hop plants [2]; 1 mM MDJ foliar spray): 0.00% | Terpene content: Geraniol (CTZ hop plants [2]; 1 mM MDJ foliar spray): 0.52% | Terpene content: Humulene (CTZ hop plants [2]; 1 mM MDJ foliar spray): 38.7% | Terpene content: Limonene (CTZ hop plants [2]; 1 mM MDJ foliar spray): 0.10% | Terpene content: Linalool (CTZ hop plants [2]; 1 mM MDJ foliar spray): 0.21% | Terpene content: Methyl Heptanoate (CTZ hop plants [2]; 1 mM MDJ foliar spray): 0.06% | Terpene content: Methyl Laurate (CTZ hop plants [2]; 1 mM MDJ foliar spray): 0.39% | Terpene content: Methyl Octanoate (CTZ hop plants [2]; 1 mM MDJ foliar spray): 0.44% | Terpene content: Methyl thiohexanoate (CTZ hop plants [2]; 1 mM MDJ foliar spray): 0.05% | Terpene content: Myrcene (CTZ hop plants [2]; 1 mM MDJ foliar spray): 27.0% | Terpene content: Nerol (CTZ hop plants [2]; 1 mM MDJ foliar spray): 0.03% | Terpene content: Ocimene (CTZ hop plants [2]; 1 mM MDJ foliar spray): 0.39% | Terpene content: Terpinolene (CTZ hop plants [2]; 1 mM MDJ foliar spray): 0.25% | Terpene content: Unidentified (CTZ hop plants [2]; 1 mM MDJ foliar spray): 13.0% | Terpene content: Geranyl acetate 1* (CTZ hop plants [2]; 1 mM MDJ foliar spray): 0.38% | Terpene content: Geranyl acetate 2** (CTZ hop plants [2]; 1 mM MDJ foliar spray): 0.07% | Terpene content: Nerolidol 1* (CTZ hop plants [2]; 1 mM MDJ foliar spray): 0.09% | Terpene content: Nerolidol 2** (CTZ hop plants [2]; 1 mM MDJ foliar spray): 0.06% | Terpene content: 2-Undecanone (CTZ hop plants [2]; 5 mM MDJ foliar spray): 0.01% | Terpene content: Alpha-pinene (CTZ hop plants [2]; 5 mM MDJ foliar spray): 0.14% | Terpene content: Beta-ionone (CTZ hop plants [2]; 5 mM MDJ foliar spray): 0.59% | Terpene content: Beta-pinene (CTZ hop plants [2]; 5 mM MDJ foliar spray): 0.35% | Terpene content: Caryophyllene (CTZ hop plants [2]; 5 mM MDJ foliar spray): 13.4% | Terpene content: Caryophyllene oxide (CTZ hop plants [2]; 5 mM MDJ foliar spray): 0.04% | Terpene content: Citral (CTZ hop plants [2]; 5 mM MDJ foliar spray): 0.11% | Terpene content: Citronellene (CTZ hop plants [2]; 5 mM MDJ foliar spray): 0.42% | Terpene content: Citronellol (CTZ hop plants [2]; 5 mM MDJ foliar spray): 0.00% | Terpene content: Farnesene (CTZ hop plants [2]; 5 mM MDJ foliar spray): 0.03% | Terpene content: Geraniol (CTZ hop plants [2]; 5 mM MDJ foliar spray): 0.78% | Terpene content: Humulene (CTZ hop plants [2]; 5 mM MDJ foliar spray): 27.3% | Terpene content: Limonene (CTZ hop plants [2]; 5 mM MDJ foliar spray): 0.09% | Terpene content: Linalool (CTZ hop plants [2]; 5 mM MDJ foliar spray): 0.31% | Terpene content: Methyl Heptanoate (CTZ hop plants [2]; 5 mM MDJ foliar spray): 0.05% | Terpene content: Methyl Laurate (CTZ hop plants [2]; 5 mM MDJ foliar spray): 0.11% | Terpene content: Methyl Octanoate (CTZ hop plants [2]; 5 mM MDJ foliar spray): 0.31% | Terpene content: Methyl thiohexanoate (CTZ hop plants [2]; 5 mM MDJ foliar spray): 0.05% | Terpene content: Myrcene (CTZ hop plants [2]; 5 mM MDJ foliar spray): 39.0% | Terpene content: Nerol (CTZ hop plants [2]; 5 mM MDJ foliar spray): 0.00% | Terpene content: Ocimene (CTZ hop plants [2]; 5 mM MDJ foliar spray): 0.28% | Terpene content: Terpinolene (CTZ hop plants [2]; 5 mM MDJ foliar spray): 0.11% | Terpene content: Unidentified (CTZ hop plants [2]; 5 mM MDJ foliar spray): 15.7% | Terpene content: Geranyl acetate 1* (CTZ hop plants [2]; 5 mM MDJ foliar spray): 0.43% | Terpene content: Geranyl acetate 2** (CTZ hop plants [2]; 5 mM MDJ foliar spray): 0.11% | Terpene content: Nerolidol 1* (CTZ hop plants [2]; 5 mM MDJ foliar spray): 0.14% | Terpene content: Nerolidol 2** (CTZ hop plants [2]; 5 mM MDJ foliar spray): 0.12% | Terpene content: 2-Undecanone (CTZ hop plants [2]; 10 mM MDJ foliar spray): 0.07% | Terpene content: Alpha-pinene (CTZ hop plants [2]; 10 mM MDJ foliar spray): 0.11% | Terpene content: Beta-ionone (CTZ hop plants [2]; 10 mM MDJ foliar spray): 0.52% | Terpene content: Beta-pinene (CTZ hop plants [2]; 10 mM MDJ foliar spray): 0.54% | Terpene content: Caryophyllene (CTZ hop plants [2]; 10 mM MDJ foliar spray): 13.2% | Terpene content: Caryophyllene oxide (CTZ hop plants [2]; 10 mM MDJ foliar spray): 0.07% | Terpene content: Citral (CTZ hop plants [2]; 10 mM MDJ foliar spray): 0.20% | Terpene content: Citronellene (CTZ hop plants [2]; 10 mM MDJ foliar spray): 0.39% | Terpene content: Citronellol (CTZ hop plants [2]; 10 mM MDJ foliar spray): 0.00% | Terpene content: Farnesene (CTZ hop plants [2]; 10 mM MDJ foliar spray): 0.02% | Terpene content: Geraniol (CTZ hop plants [2]; 10 mM MDJ foliar spray): 0.82% | Terpene content: Humulene (CTZ hop plants [2]; 10 mM MDJ foliar spray): 24.7% | Terpene content: Limonene (CTZ hop plants [2]; 10 mM MDJ foliar spray): 0.09% | Terpene content: Linalool (CTZ hop plants [2]; 10 mM MDJ foliar spray): 0.31% | Terpene content: Methyl Heptanoate (CTZ hop plants [2]; 10 mM MDJ foliar spray): 0.06% | Terpene content: Methyl Laurate (CTZ hop plants [2]; 10 mM MDJ foliar spray): 0.19% | Terpene content: Methyl Octanoate (CTZ hop plants [2]; 10 mM MDJ foliar spray): 0.24% | Terpene content: Methyl thiohexanoate (CTZ hop plants [2]; 10 mM MDJ foliar spray): 0.02% | Terpene content: Myrcene (CTZ hop plants [2]; 10 mM MDJ foliar spray): 39.6% | Terpene content: Nerol (CTZ hop plants [2]; 10 mM MDJ foliar spray): 0.02% | Terpene content: Ocimene (CTZ hop plants [2]; 10 mM MDJ foliar spray): 0.16% | Terpene content: Terpinolene (CTZ hop plants [2]; 10 mM MDJ foliar spray): 0.05% | Terpene content: Unidentified (CTZ hop plants [2]; 10 mM MDJ foliar spray): 17.8% | Terpene content: Geranyl acetate 1* (CTZ hop plants [2]; 10 mM MDJ foliar spray): 0.38% | Terpene content: Geranyl acetate 2** (CTZ hop plants [2]; 10 mM MDJ foliar spray): 0.09% | Terpene content: Nerolidol 1* (CTZ hop plants [2]; 10 mM MDJ foliar spray): 0.17% | Terpene content: Nerolidol 2** (CTZ hop plants [2]; 10 mM MDJ foliar spray): 0.22% | caryophyllene content (Cashmere Hops [3]): increased | caryophyllene oxide content (Cashmere Hops [3]): decreased | citral content (Cashmere Hops [3]): decreased | farnesene content (Cashmere Hops [3]): increased | geraniol content (Cashmere Hops [3]): increased | humulene content (Cashmere Hops [3]): increased | methyl heptanoate content (Cashmere Hops [3]): decreased | methyl laurate content (Cashmere Hops [3]): decreased | methyl octanoate content (Cashmere Hops [3]): increased | methyl thiohexanoate content (Cashmere Hops [3]): increased | myrcene content (Cashmere Hops [3]): decreased | nerolidol content (Cashmere Hops [3]): increased | ocimene content (Cashmere Hops [3]): increased | q-pinene content (Cashmere Hops [3]): increased | β-pinene content (Cashmere Hops [3]): decreased | content of the alpha acid analogue cohumulone (Cashmere Hops [4]): decreased | beta acid content (Cashmere Hops [4]; especially at 5 mM): statistically significant increase | Alpha Acids (CTZ hop plants [5]; 1 mM MDJ foliar spray): 4.83% | Beta Acids (CTZ hop plants [5]; 1 mM MDJ foliar spray): 3.53% | Cohumulone (CTZ hop plants [5]; 1 mM MDJ foliar spray): 21.43 % alpha | Colupulone (CTZ hop plants [5]; 1 mM MDJ foliar spray): 43.53 % beta | Alpha Acids (CTZ hop plants [5]; 5 mM MDJ foliar spray): 6.10% | Beta Acids (CTZ hop plants [5]; 5 mM MDJ foliar spray): 3.83% | Cohumulone (CTZ hop plants [5]; 5 mM MDJ foliar spray): 23.37 % alpha | Colupulone (CTZ hop plants [5]; 5 mM MDJ foliar spray): 49.3 % beta | Alpha Acids (CTZ hop plants [5]; 10 mM MDJ foliar spray): 7.80% | Beta Acids (CTZ hop plants [5]; 10 mM MDJ foliar spray): 4.23% | Cohumulone (CTZ hop plants [5]; 10 mM MDJ foliar spray): 26.03 % alpha | Colupulone (CTZ hop plants [5]; 10 mM MDJ foliar spray): 43.47 % beta | Colupolone content, as a percentage of overall beta acids (CTZ hop plants [5]; 1, 5, 10 mM MDJ foliar spray): highest at 5 mM treatment | alpha acid content (CTZ hop plants [5]; 1, 5, 10 mM MDJ foliar spray): dose-dependent increase | beta acid content (CTZ hop plants [5]; 1, 5, 10 mM MDJ foliar spray): dose-dependent increase | Cohumulone content as a percentage of overall alpha acids (CTZ hop plants [5]; with increasing MDJ concentration (1, 5, 10 mM)): increased
